In ChEMBL document CHEMBL1201862, “PubChem BioAssay data set” (2004):
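A five-concentration, 48-hour dose response in 96-well plates underlies each endpoint, interpolated linearly between surrounding concentrations. Abbreviation: GI50, concentration required for 50% inhibition of growth.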 The source made the active and inactive calls. Rule as the data show it: active = GI50 up to about 1.1 µM and inactive = higher.

Legend:
Experiment in all cases: NCI tumour cell line growth inhibition, 48 h
786-0 = tested on: 786-0
A549 = tested on: A549
ACHN = tested on: ACHN
BT-549 = tested on: BT-549
COLO 205 = tested on: COLO 205
DU-145 = tested on: DU-145
EKVX = tested on: EKVX
HCC 2998 = tested on: HCC 2998
HCT-116 = tested on: HCT-116
HCT-15 = tested on: HCT-15
HOP-62 = tested on: HOP-62
HT-29 = tested on: HT-29
Hs-578T = tested on: Hs-578T
IGROV-1 = tested on: IGROV-1
K562 = tested on: K562
KM12 = tested on: KM12
LOX IMVI = tested on: LOX IMVI
M14 = tested on: M14
MCF7 = tested on: MCF7
MDA-MB-231 = tested on: MDA-MB-231
MDA-MB-435 = tested on: MDA-MB-435
MDA-N = tested on: MDA-N
MOLT-4 = tested on: MOLT-4
Malme-3M = tested on: Malme-3M
NCI-H226 = tested on: NCI-H226
NCI-H23 = tested on: NCI-H23
NCI-H460 = tested on: NCI-H460
NCI/ADR-RES = tested on: NCI/ADR-RES
OVCAR-3 = tested on: OVCAR-3
OVCAR-4 = tested on: OVCAR-4
OVCAR-5 = tested on: OVCAR-5
OVCAR-8 = tested on: OVCAR-8
PC-3 = tested on: PC-3
RPMI-8226 = tested on: RPMI-8226
SF-268 = tested on: SF-268
SF-295 = tested on: SF-295
SF-539 = tested on: SF-539
SK-MEL-28 = tested on: SK-MEL-28
SK-MEL-2 = tested on: SK-MEL-2
SK-MEL-5 = tested on: SK-MEL-5
SK-OV-3 = tested on: SK-OV-3
SN12C = tested on: SN12C
SNB-19 = tested on: SNB-19
SNB-75 = tested on: SNB-75
SR = tested on: SR
SW-620 = tested on: SW-620
T47D = tested on: T47D
TK-10 = tested on: TK-10
U-251 = tested on: U-251
UACC-257 = tested on: UACC-257
UACC-62 = tested on: UACC-62
UO-31 = tested on: UO-31
A498 = tested on: A498
CAKI-1 = tested on: CAKI-1
CCRF-CEM = tested on: CCRF-CEM
HL-60 = tested on: HL-60
HOP-92 = tested on: HOP-92
NCI-H522 = tested on: NCI-H522
RXF 393 = tested on: RXF 393

## c1cc(CN2CCNCCNCCNCC2)cc(CN2CCNCCNCCNCC2)c1
786-0
  GI50: > 100 µM (inactive)
A549
  GI50: > 100 µM (inactive)
ACHN
  GI50: > 100 µM (inactive)
BT-549
  GI50: > 100 µM (inactive)
COLO 205
  GI50: > 100 µM (inactive)
DU-145
  GI50: > 100 µM (inactive)
EKVX
  GI50: > 100 µM (inactive)
HCC 2998
  GI50: > 100 µM (inactive)
HCT-116
  GI50: > 100 µM (inactive)
HCT-15
  GI50: > 10 µM
HOP-62
  GI50: > 100 µM (inactive)
HT-29
  GI50: > 100 µM (inactive)
Hs-578T
  GI50: > 100 µM (inactive)
IGROV-1
  GI50: > 100 µM (inactive)
K562
  GI50: > 100 µM (inactive)
KM12
  GI50: > 100 µM (inactive)
LOX IMVI
  GI50: > 100 µM (inactive)
M14
  GI50: > 100 µM (inactive)
MCF7
  GI50: > 100 µM (inactive)
MDA-MB-231
  GI50: > 100 µM (inactive)
MDA-MB-435
  GI50: > 100 µM (inactive)
MDA-N
  GI50: > 100 µM (inactive)
MOLT-4
  GI50: > 100 µM (inactive)
Malme-3M
  GI50: > 100 µM (inactive)
NCI-H226
  GI50: > 100 µM (inactive)
NCI-H23
  GI50: > 100 µM (inactive)
NCI-H460
  GI50: > 100 µM (inactive)
NCI/ADR-RES
  GI50: > 100 µM (inactive)
OVCAR-3
  GI50: > 100 µM (inactive)
OVCAR-4
  GI50: > 100 µM (inactive)
OVCAR-5
  GI50: > 100 µM (inactive)
OVCAR-8
  GI50: > 100 µM (inactive)
PC-3
  GI50: > 100 µM (inactive)
RPMI-8226
  GI50: > 100 µM (inactive)
SF-268
  GI50: > 100 µM (inactive)
SF-295
  GI50: > 100 µM (inactive)
SF-539
  GI50: > 100 µM (inactive)
SK-MEL-28
  GI50: > 100 µM (inactive)
SK-MEL-2
  GI50: > 100 µM (inactive)
SK-MEL-5
  GI50: > 100 µM (inactive)
SK-OV-3
  GI50: > 100 µM (inactive)
SN12C
  GI50: > 100 µM (inactive)
SNB-19
  GI50: > 100 µM (inactive)
SNB-75
  GI50: > 100 µM (inactive)
SR
  GI50: > 100 µM (inactive)
SW-620
  GI50: > 100 µM (inactive)
T47D
  GI50: > 100 µM (inactive)
TK-10
  GI50: > 100 µM (inactive)
U-251
  GI50: > 100 µM (inactive)
UACC-257
  GI50: > 100 µM (inactive)
UACC-62
  GI50: > 100 µM (inactive)
UO-31
  GI50: > 100 µM (inactive)

## O=C1SC(c2ccc(Cl)cc2)(c2ccc(Cl)cc2)c2ccccc21
786-0
  GI50: > 100 µM (inactive)
A498
  GI50: > 100 µM (inactive)
A549
  GI50: > 100 µM (inactive)
ACHN
  GI50: 91 µM (inactive)
BT-549
  GI50: > 100 µM (inactive)
CAKI-1
  GI50: > 100 µM (inactive)
CCRF-CEM
  GI50: 36.2 µM (inactive)
COLO 205
  GI50: 83 µM (inactive)
DU-145
  GI50: 89.1 µM (inactive)
EKVX
  GI50: 86.7 µM (inactive)
HCC 2998
  GI50: 38.3 µM (inactive)
HCT-116
  GI50: 13.3 µM (inactive)
HCT-15
  GI50: 34.8 µM
HL-60
  GI50: 28.2 µM (inactive)
HOP-62
  GI50: > 100 µM (inactive)
HOP-92
  GI50: 81.5 µM (inactive)
HT-29
  GI50: 38.5 µM (inactive)
Hs-578T
  GI50: 81.8 µM (inactive)
IGROV-1
  GI50: > 100 µM (inactive)
K562
  GI50: 44.5 µM (inactive)
KM12
  GI50: 66.7 µM (inactive)
LOX IMVI
  GI50: 80.7 µM (inactive)
M14
  GI50: 87.9 µM (inactive)
MCF7
  GI50: 48.8 µM (inactive)
MDA-MB-231
  GI50: > 100 µM (inactive)
MDA-MB-435
  GI50: 61.5 µM (inactive)
MDA-N
  GI50: 62.4 µM (inactive)
MOLT-4
  GI50: 32.7 µM (inactive)
Malme-3M
  GI50: > 100 µM (inactive)
NCI-H226
  GI50: 39.5 µM (inactive)
NCI-H23
  GI50: 59.4 µM (inactive)
NCI-H460
  GI50: 63.1 µM (inactive)
NCI-H522
  GI50: 70 µM (inactive)
NCI/ADR-RES
  GI50: > 100 µM (inactive)
OVCAR-3
  GI50: 79.3 µM (inactive)
OVCAR-4
  GI50: 33.5 µM (inactive)
OVCAR-5
  GI50: > 100 µM (inactive)
OVCAR-8
  GI50: > 100 µM (inactive)
PC-3
  GI50: 40.4 µM (inactive)
RPMI-8226
  GI50: 55.8 µM (inactive)
RXF 393
  GI50: 39.4 µM (inactive)
SF-268
  GI50: > 100 µM (inactive)
SF-295
  GI50: 97.5 µM (inactive)
SF-539
  GI50: > 100 µM (inactive)
SK-MEL-28
  GI50: > 100 µM (inactive)
SK-MEL-2
  GI50: 22.6 µM (inactive)
SK-MEL-5
  GI50: 52.8 µM (inactive)
SK-OV-3
  GI50: > 100 µM (inactive)
SN12C
  GI50: > 100 µM (inactive)
SNB-19
  GI50: > 100 µM (inactive)
SNB-75
  GI50: > 100 µM (inactive)
SW-620
  GI50: > 100 µM (inactive)
T47D
  GI50: 69 µM (inactive)
TK-10
  GI50: > 100 µM (inactive)
U-251
  GI50: > 100 µM (inactive)
UACC-257
  GI50: 34.3 µM (inactive)
UACC-62
  GI50: 98.4 µM (inactive)
UO-31
  GI50: 76.6 µM (inactive)

## Cc1cc(C)c2c(=N)c3ccccc3n(CCCCCCO)c2n1
786-0
  GI50: 2.47 µM (inactive)
A498
  GI50: 10.5 µM (inactive)
A549
  GI50: 3.3 µM (inactive)
ACHN
  GI50: 1.36 µM (inactive)
BT-549
  GI50: 6.89 µM (inactive)
CAKI-1
  GI50: 2.48 µM (inactive)
CCRF-CEM
  GI50: 1.22 µM (inactive)
COLO 205
  GI50: 1.35 µM (inactive)
DU-145
  GI50: 5.48 µM (inactive)
EKVX
  GI50: 2.82 µM (inactive)
HCC 2998
  GI50: 2.81 µM (inactive)
HCT-116
  GI50: 3.11 µM (inactive)
HCT-15
  GI50: 2.88 µM
HL-60
  GI50: 2.9 µM (inactive)
HOP-62
  GI50: 4.53 µM (inactive)
HOP-92
  GI50: 4.26 µM (inactive)
HT-29
  GI50: 1.03 µM (active)
Hs-578T
  GI50: 3.03 µM (inactive)
IGROV-1
  GI50: 2.09 µM (inactive)
KM12
  GI50: 3.94 µM (inactive)
LOX IMVI
  GI50: 1.91 µM (inactive)
M14
  GI50: 4.22 µM (inactive)
MCF7
  GI50: 2.11 µM (inactive)
MDA-MB-231
  GI50: 3.68 µM (inactive)
MDA-MB-435
  GI50: 4.38 µM (inactive)
MDA-N
  GI50: 2.52 µM (inactive)
MOLT-4
  GI50: 3.78 µM (inactive)
Malme-3M
  GI50: 2.63 µM (inactive)
NCI-H226
  GI50: 3.87 µM (inactive)
NCI-H23
  GI50: 2.15 µM (inactive)
NCI-H460
  GI50: 1.69 µM (inactive)
NCI-H522
  GI50: 1.44 µM (inactive)
NCI/ADR-RES
  GI50: 2.31 µM (inactive)
OVCAR-3
  GI50: 6.55 µM (inactive)
OVCAR-4
  GI50: 2.45 µM (inactive)
OVCAR-5
  GI50: 4.91 µM (inactive)
OVCAR-8
  GI50: 1.17 µM (inactive)
PC-3
  GI50: 2.21 µM (inactive)
RPMI-8226
  GI50: 1.38 µM (inactive)
RXF 393
  GI50: 3.21 µM (inactive)
SF-268
  GI50: 3.62 µM (inactive)
SF-295
  GI50: 3.36 µM (inactive)
SF-539
  GI50: 2.33 µM (inactive)
SK-MEL-28
  GI50: 5.71 µM (inactive)
SK-MEL-2
  GI50: 3.27 µM (inactive)
SK-MEL-5
  GI50: 2.55 µM (inactive)
SK-OV-3
  GI50: 5.2 µM (inactive)
SN12C
  GI50: 1.95 µM (inactive)
SNB-19
  GI50: 5.6 µM (inactive)
SNB-75
  GI50: 1.88 µM (inactive)
SW-620
  GI50: 4.17 µM (inactive)
T47D
  GI50: 2.94 µM (inactive)
TK-10
  GI50: 3.15 µM (inactive)
U-251
  GI50: 3.51 µM (inactive)
UACC-257
  GI50: 4.75 µM (inactive)
UACC-62
  GI50: 2.64 µM (inactive)
UO-31
  GI50: 1.63 µM (inactive)
